Source: patent US20260007684A1, “AMIDE DERIVATIVES FOR INHIBITING NLRP3 AND USES THEREOF” (Ventus Therapeutics U.S., Inc., priority 2023, published 2026)

Key:
human NLRP3 [1] = molecular target: T1, human NLRP3 (Homo sapiens (Human), UniProt Q96P20); assay: Scintillation Proximity (SPA) NLRP3 Assay: displacement of 3H-MCC950; format: binding
human NLRP3 [2] = molecular target: T1, human NLRP3; assay: Human PBMC NLRP3 Assay (LPS priming, ATP stimulation, cytokine measurement); format: cell-based; details: for IC50: read-out: PBMC IC50
[3] = displacement of 3H-MCC950, read-out: SPA IC50
[4] = human PBMC, LPS priming, ATP stimulation

T1 sequence (Q96P20 whole entry): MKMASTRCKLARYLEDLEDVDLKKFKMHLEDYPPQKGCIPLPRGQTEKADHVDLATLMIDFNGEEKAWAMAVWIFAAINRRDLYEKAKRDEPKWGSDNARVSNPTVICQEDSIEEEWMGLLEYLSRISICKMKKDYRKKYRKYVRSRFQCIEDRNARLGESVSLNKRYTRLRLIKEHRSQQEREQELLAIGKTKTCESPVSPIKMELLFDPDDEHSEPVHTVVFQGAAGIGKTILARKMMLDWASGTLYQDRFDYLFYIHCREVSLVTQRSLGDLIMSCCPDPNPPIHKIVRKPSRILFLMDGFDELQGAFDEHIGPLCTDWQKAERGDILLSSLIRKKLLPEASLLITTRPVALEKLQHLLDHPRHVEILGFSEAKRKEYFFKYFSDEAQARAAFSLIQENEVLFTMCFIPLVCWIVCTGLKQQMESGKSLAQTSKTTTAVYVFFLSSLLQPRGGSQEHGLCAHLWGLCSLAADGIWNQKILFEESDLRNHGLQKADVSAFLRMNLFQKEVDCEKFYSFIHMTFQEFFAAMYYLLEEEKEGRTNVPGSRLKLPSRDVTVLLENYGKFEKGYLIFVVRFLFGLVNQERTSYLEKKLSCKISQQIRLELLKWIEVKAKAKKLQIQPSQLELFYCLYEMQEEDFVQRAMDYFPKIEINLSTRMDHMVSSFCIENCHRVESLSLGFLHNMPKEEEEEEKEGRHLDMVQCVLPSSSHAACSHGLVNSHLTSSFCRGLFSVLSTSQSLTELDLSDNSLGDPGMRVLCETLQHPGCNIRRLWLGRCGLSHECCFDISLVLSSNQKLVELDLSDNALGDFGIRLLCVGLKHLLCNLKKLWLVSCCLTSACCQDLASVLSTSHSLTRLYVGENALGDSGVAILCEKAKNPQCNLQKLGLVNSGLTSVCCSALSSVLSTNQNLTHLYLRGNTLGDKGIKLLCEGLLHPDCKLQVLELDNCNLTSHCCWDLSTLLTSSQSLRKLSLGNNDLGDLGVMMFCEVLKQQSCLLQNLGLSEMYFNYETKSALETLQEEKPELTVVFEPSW

IC50 (human NLRP3 [1]; [3]) | IC50 (human NLRP3 [2]; [4]) | SMILES | also measured
< 1 µM | 0.01 to 0.1 µM | C[C@H]1CCN(c2nnn[nH]2)C[C@@H](NC(=O)C2(c3ccc(OC(F)F)cc3O)CC2)C1 (single isomer, unassigned) [70D*] | 
< 1 µM | 0.1 to 0.5 µM | O=C(NC1CC(C(F)(F)F)CCN(c2nnn[nH]2)C1)C1(c2ccc(Cl)cc2)CC1 (racemic) [Rac-1, 1-(4-chlorophenyl)-N-[1-(1H-1,2,3,4-tetrazol-5-yl)-5-(trifluoromethyl)azepan-3-yl]cyclopropane-1-carboxamide] | 
 |  | O=C(N[C@@H]1CCCN(c2nnn[nH]2)C1)c1ccc(Cl)cc1 [Comparative Example G, (R)-N-(1-(1H-tetrazol-5-yl)piperidin-3-yl)-4-chlorobenzamide, reference compound] | IC50 (human NLRP3 [2]): > 100 µM
< 1 µM | < 0.01 µM | C[C@@H]1CCN(c2nnn[nH]2)C[C@H](NC(=O)C2(c3ccc(C(F)F)cc3O)CC2)C1 (single isomer, unassigned) [30A*, 1-(4-(difluoromethyl)-2-hydroxyphenyl)-N-(5-methyl-1-(1H-tetrazol-5-yl)azepan-3-yl)cyclopropane-1-carboxamide] | 
 |  | Cn1nnnc1N1CCC[C@@H](NC(=O)C2(c3ccc(Cl)cc3)CC2)C1 [Comparative Example F, (R)-1-(4-chlorophenyl)-N-(1-(1-methyl-1H-tetrazol-5-yl)piperidin-3-yl)cyclopropane-1-carboxamide, reference compound] | IC50 (human NLRP3 [2]): 8.4 µM
< 1 µM | 0.01 to 0.1 µM | Cc1ccc(C2(C(=O)N[C@@H]3C[C@H](C)CCN(c4nnn[nH]4)C3)CC2)cc1 (single isomer, unassigned) [71A*] | 
 |  | O=C(N[C@@H]1CCCN(c2ccccc2)C1)c1ccc(Cl)cc1 [Comparative Example J1, (R)-4-chloro-N-(1-phenylpiperidin-3-yl)benzamide, reference compound] | IC50 (human NLRP3 [2]): > 100 µM
 |  | O=C(N[C@H]1CCCN(c2ccccc2)C1)c1ccc(Cl)cc1 [Comparative Example J2, (S)-4-chloro-N-(1-phenylpiperidin-3-yl)benzamide, reference compound] | IC50 (human NLRP3 [2]): > 100 µM
< 1 µM | 0.01 to 0.1 µM | C[C@@H]1CCN(c2nnn[nH]2)C[C@@H](NC(=O)C2(c3ccc(C(F)F)cc3O)CC2)C1 (single isomer, unassigned) [30B*, 1-(4-(difluoromethyl)-2-hydroxyphenyl)-N-(5-methyl-1-(1H-tetrazol-5-yl)azepan-3-yl)cyclopropane-1-carboxamide] | 
 |  | O=C(Cc1ccc(Cl)cc1)N[C@@H]1CCCN(c2nnn[nH]2)C1 [Comparative Example H, (R)-N-(1-(1H-tetrazol-5-yl)piperidin-3-yl)-2-(4-chlorophenyl)acetamide, reference compound] | IC50 (human NLRP3 [2]): 10.5 µM
< 1 µM | 0.01 to 0.1 µM | C[C@@H]1CCN(c2nnn[nH]2)C[C@H](NC(=O)C2(c3ccc(Cl)c(F)c3)CC2)C1 (single isomer, unassigned) [65A*] | 
 | > 0.5 µM | O=C(N[C@@H]1CCCN(c2nnn[nH]2)C1)C1(c2ccc(Cl)cc2F)CC1 [Compound 105, (R)-N-(1-(1H-tetrazol-5-yl)piperidin-3-yl)-1-(4-chloro-2-fluorophenyl)cyclopropane-1-carboxamide] | IC50 (human NLRP3 [2]): 0.85 µM; fold increase in potency as measured by PBMC IC50 (human NLRP3 [2]; relative to Compound 10A): 2.5 fold
< 1 µM | < 0.01 µM | C[C@@H]1CCN(c2nnn[nH]2)C[C@H](NC(=O)C2(c3ccc(C(F)(F)F)cc3F)CC2)C1 (single isomer, unassigned) [68A*] | 
< 1 µM | 0.01 to 0.1 µM | C[C@@H]1CCN(c2nnn[nH]2)C[C@H](NC(=O)C2(c3cc(F)c(C(F)(F)F)cc3F)CC2)C1 (single isomer, unassigned) [7A*, 1-(2,5-difluoro-4-(trifluoromethyl)phenyl)-N-(5-methyl-1-(1H-tetrazol-5-yl)azepan-3-yl)cyclopropane-1-carboxamide] | 
< 1 µM | 0.01 to 0.1 µM | C[C@H]1CC[C@H](NC(=O)C2(c3ccc(Cl)cc3O)CC2)CN(c2nnn[nH]2)C1 (single isomer, unassigned) [90B*] | 
< 1 µM | < 0.01 µM | C[C@@H]1CCN(c2nnn[nH]2)C[C@H](NC(=O)C2(c3ccc(OC(F)F)cc3O)CC2)C1 (single isomer, unassigned) [70A*] | 
< 1 µM | 0.01 to 0.1 µM | C[C@@H]1CCN(c2nnn[nH]2)C[C@@H](NC(=O)C2(c3ccc(OC(F)F)cc3O)CC2)C1 (single isomer, unassigned) [70B*] | 

IC50 (human NLRP3 [1]; [3]) | IC50 (human NLRP3 [2]; [4]) | SMILES | also measured
< 1 µM | 0.01 to 0.1 µM | C[C@@H]1CCN(c2nnn[nH]2)C[C@H](NC(=O)C2(c3ccc(Cl)c(F)c3F)CC2)C1 (single isomer, unassigned) [4A*, 1-(4-chloro-2,3-difluorophenyl)-N-(5-methyl-1-(1H-tetrazol-5-yl)azepan-3-yl)cyclopropane-1-carboxamide] | 
< 1 µM | 0.01 to 0.1 µM | C[C@@H]1CCN(c2nnn[nH]2)C[C@@H](NC(=O)C2(c3ccc(C(F)(F)F)c(F)c3O)CC2)C1 (single isomer, unassigned) [31B*, 1-(3-fluoro-2-hydroxy-4-(trifluoromethyl)phenyl)-N-(5-methyl-1-(1H-tetrazol-5-yl)azepan-3-yl)cyclopropane-1-carboxamide] | 
< 1 µM | < 0.01 µM | C[C@@H]1CCN(c2nnn[nH]2)C[C@H](NC(=O)C2(c3ccc(C4CC4)c(F)c3O)CC2)C1 (single isomer, unassigned) [32A*, 1-(4-cyclopropyl-3-fluoro-2-hydroxyphenyl)-N-(5-methyl-1-(1H-tetrazol-5-yl)azepan-3-yl)cyclopropane-1-carboxamide] | 
< 1 µM | 0.01 to 0.1 µM | C[C@@H]1CCN(c2nnn[nH]2)C[C@H](NC(=O)C2(c3ccc(SC(F)(F)F)cc3)CC2)C1 (single isomer, unassigned) [69A*] | 
< 1 µM | 0.01 to 0.1 µM | C[C@@H]1CCN(c2nnn[nH]2)C[C@H](NC(=O)C2(c3ccc(OC(F)F)c(F)c3)CC2)C1 (single isomer, unassigned) [73A*] | 
> 100 µM |  | C[C@@]1(NC(=O)C2(c3ccc(Cl)cc3)CC2)CCCN(c2nnn[nH]2)C1 (single isomer, unassigned) [11A*, 1-(4-chlorophenyl)-N-(3-methyl-1-(1H-tetrazol-5-yl)piperidin-3-yl)cyclopropane-1-carboxamide] | 
10 to 50 µM |  | C[C@@H]1CCN(c2nnn[nH]2)C[C@@H](NC(=O)C2(c3ccc(Cl)nc3O)CC2)C1 (single isomer, unassigned) [100B*] | 
1 to 10 µM |  | C[C@H]1CCN(c2nnn[nH]2)C[C@H](NC(=O)C2(c3ccc(C(F)(F)F)cc3)CC2)C1 (single isomer, unassigned) [61B*] | 
 |  | C[C@H]1C[C@@H]2CC[C@H]([C@@H](NC(=O)C3(c4ccc(C(F)(F)F)cc4)CC3)C1)N2c1nnn[nH]1 [104B*, N-((1R,2S,4R,6S)-4-methyl-9-(1H-tetrazol-5-yl)-9-azabicyclo[4.2.1]nonan-2-yl)-1-(4-(trifluoromethyl)phenyl)cyclopropane-1-carboxamide] | IC50 (human NLRP3 [1]; SPA IC50, displacement of 3H-MCC950): 10 to 50 µM
> 100 µM |  | C[C@H]1CCN(c2nnn[nH]2)C[C@H](NC(=O)C2(c3ccc(C(F)F)cc3)CC2)C1 (single isomer, unassigned) [5C*, 1-(4-(difluoromethyl)phenyl)-N-(5-methyl-1-(1H-tetrazol-5-yl)azepan-3-yl)cyclopropane-1-carboxamide] | 
50 to 100 µM |  | O=C(N[C@@H]1CN(c2nnn[nH]2)CCC(F)(F)C1)C1(c2ccc(Cl)cc2)CC1 (single isomer, unassigned) [53B*] | 
1 to 10 µM |  | C[C@H]1CCN(c2nnn[nH]2)C[C@@H](NC(=O)C2(c3ccc(OC(F)F)c(F)c3)CC2)C1 (single isomer, unassigned) [73D*] | 
10 to 50 µM |  | C[C@@H]1CCN(c2nnn[nH]2)C[C@@H](NC(=O)C2(c3ccc(C4CCC4)cc3)CC2)C1 (single isomer, unassigned) [8B*, 1-(4-cyclobutylphenyl)-N-(5-methyl-1-(1H-tetrazol-5-yl)azepan-3-yl)cyclopropane-1-carboxamide] | 
50 to 100 µM |  | CC(C)c1ccc(C2(C(=O)N[C@@H]3C[C@@H](C)CCN(c4nnn[nH]4)C3)CC2)c(O)c1 (single isomer, unassigned) [27C*, 1-(2-hydroxy-4-isopropylphenyl)-N-(5-methyl-1-(1H-tetrazol-5-yl)azepan-3-yl)cyclopropane-1-carboxamide] | 
10 to 50 µM |  | C[C@H]1CCN(c2nnn[nH]2)C[C@H](NC(=O)C2(c3ccc(OC(F)F)cc3O)CC2)C1 (single isomer, unassigned) [70C*] | 
10 to 50 µM |  | C[C@H]1CCN(c2nnn[nH]2)C[C@H](NC(=O)C2(c3ccc(C4CC4)cc3)CC2)C1 (single isomer, unassigned) [2C*] | 

SMILES | IC50 (human NLRP3 [1]; [3]) | IC50 (human NLRP3 [2]; [4]) | also measured
O=C(N[C@@H]1CC[C@H]2CC[C@@H]1N2c1nnn[nH]1)C1(c2ccc(OC(F)F)cc2)CC1 [Compound 106, N-((1S,2R,5S)-8-(1H-tetrazol-5-yl)-8-azabicyclo[3.2.1]octan-2-yl)-1-(4-(difluoromethoxy)phenyl)cyclopropane-1-carboxamide] |  | > 0.5 µM | 
Cc1ccc(C2(C(=O)N[C@@H]3C[C@H](C)[C@H]4CC[C@@H]3N4c3nnn[nH]3)CC2)cc1 [87C*, N-((1S,2R,4S,5R)-4-methy1-8-(1H-tetrazol-5-yl)-8-azabicyclo[3.2.1]octan-2-yl)-1-(p-tolyl)cyclopropane-1-carboxamide] | > 100 µM |  | 
C[C@H]1C[C@@H](NC(=O)C2(c3ccc(SC(F)F)cc3)CC2)[C@@H]2CC[C@H]1N2c1nnn[nH]1 [85C*, 1-(4-((difluoromethyl)thio)phenyl)-N-((1S,2R,4S,5R)-4-methyl-8-(1H-tetrazol-5-yl)-8-azabicyclo[3.2.1]octan-2-yl)cyclopropane-1-carboxamide] | > 100 µM |  | 
C[C@@H]1C[C@@H](NC(=O)C2(c3ccc(OC(F)F)cc3)CC2)[C@@H]2CC[C@H]1N2c1nnn[nH]1 (single isomer, unassigned) [35G*] | > 100 µM |  | 
C[C@H]1C[C@H](NC(=O)C2(c3ccc(OC(F)F)cc3)CC2)[C@H]2CC[C@@H]1N2c1nnn[nH]1 (single isomer, unassigned) [35F*] | 50 to 100 µM |  | 
